Assay results reported in ChEMBL document CHEMBL1201862, “PubChem BioAssay data set” (2004).
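Assay format: 96-well plates, 48-hour exposure. The concentration for 50% growth inhibition is given as GI50.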 Active and inactive are the calls of the source. Cut-off read from the data, not from the text of the source: active = GI50 up to about 1.1 µM and inactive = higher.

Key:
Assay in all cases: NCI tumour cell line growth inhibition, 48 h
[1] = tested on: ACHN
[2] = tested on: BT-549
[3] = tested on: CCRF-CEM
[4] = tested on: DU-145
[5] = tested on: HCT-116
[6] = tested on: HT-29
[7] = tested on: Hs-578T
[8] = tested on: K562
[9] = tested on: KM12
[10] = tested on: M14
[11] = tested on: MCF7
[12] = tested on: MDA-MB-435
[13] = tested on: OVCAR-3
[14] = tested on: PC-3
[15] = tested on: RPMI-8226
[16] = tested on: RXF 393
[17] = tested on: SK-MEL-28
[18] = tested on: SK-MEL-2
[19] = tested on: SN12C
[20] = tested on: TK-10

SMILES	GI50 [1]	GI50 [2]	GI50 [3]	GI50 [4]	GI50 [5]	GI50 [6]	GI50 [7]	GI50 [8]	GI50 [9]	GI50 [10]	GI50 [11]	GI50 [12]	GI50 [13]	GI50 [14]	GI50 [15]	GI50 [16]	GI50 [17]	GI50 [18]	GI50 [19]	GI50 [20]
OCCc1ccsc1-c1sc(-c2cc(CCO)c(-c3sc(-c4cc(CCO)c(-c5sccc5CCO)s4)cc3CCO)s2)cc1CCO	1.47 µM (inactive)	0.634 µM (active)	0.647 µM (active)	1.34 µM (inactive)	0.889 µM (active)	1.77 µM (inactive)	3.13 µM (inactive)	1.14 µM (inactive)	0.621 µM (active)	1.82 µM (inactive)	0.624 µM (active)	1.32 µM (inactive)	1.38 µM (inactive)	1.28 µM (inactive)	0.344 µM (active)	0.454 µM (active)	1.55 µM (inactive)	1.68 µM (inactive)	1.85 µM (inactive)	1.55 µM (inactive)
O=C(Nc1ccccc1)N(C1=NCC(CI)S1)c1ccc(F)cc1F (stereo not given)	> 100 µM (inactive)	26.5 µM (inactive)	15.3 µM (inactive)	> 100 µM (inactive)	55.2 µM (inactive)	29.2 µM (inactive)	> 100 µM (inactive)	41.5 µM (inactive)	45.6 µM (inactive)	79.1 µM (inactive)	41.6 µM (inactive)	50.1 µM (inactive)	> 100 µM (inactive)	67.1 µM (inactive)	56.2 µM (inactive)	24.3 µM (inactive)	24.1 µM (inactive)	> 100 µM (inactive)	46.7 µM (inactive)	82.8 µM (inactive)
Cc1c(-c2ccccc2)c(C#N)c2nnn(-c3ccccc3)c(=O)n12	76.4 µM (inactive)	> 100 µM (inactive)	34.8 µM (inactive)	> 100 µM (inactive)	> 100 µM (inactive)	29 µM (inactive)	> 100 µM (inactive)	40.6 µM (inactive)	75.7 µM (inactive)	67.1 µM (inactive)	80.9 µM (inactive)	> 100 µM (inactive)	85.1 µM (inactive)	78.9 µM (inactive)	> 100 µM (inactive)	81.7 µM (inactive)	> 100 µM (inactive)	> 100 µM (inactive)	> 100 µM (inactive)	> 100 µM (inactive)
Nc1nc(-c2ccccc2)cc(-c2ccc(F)cc2)c1-c1ccc(Cl)cc1	> 100 µM (inactive)	> 100 µM (inactive)	33.2 µM (inactive)	> 100 µM (inactive)	> 100 µM (inactive)	13.2 µM (inactive)	73.3 µM (inactive)	12.5 µM (inactive)	> 100 µM (inactive)	> 100 µM (inactive)	41.7 µM (inactive)	> 100 µM (inactive)	> 100 µM (inactive)	> 100 µM (inactive)	44.3 µM (inactive)	> 100 µM (inactive)	> 100 µM (inactive)	> 100 µM (inactive)	> 100 µM (inactive)	> 100 µM (inactive)
CC(C)=CCC[C@@H](C)C1=C(N)C(=O)C(C)=C(O)C1=O	18.8 µM (inactive)	> 75 µM (inactive)	18.7 µM (inactive)	> 75 µM (inactive)	27.6 µM (inactive)	15.6 µM (inactive)	34.9 µM (inactive)	35.7 µM (inactive)	32.7 µM (inactive)	38.7 µM (inactive)	61.5 µM (inactive)	44.8 µM (inactive)	33 µM (inactive)	54.3 µM (inactive)	39.8 µM (inactive)	> 75 µM (inactive)	> 75 µM (inactive)	65.9 µM (inactive)	45.8 µM (inactive)	53.1 µM (inactive)
NNC1=Nc2ccc(Cl)cc2C(=S)N2CSCC12 (stereo not given)	> 100 µM (inactive)	> 100 µM (inactive)	> 100 µM (inactive)	> 100 µM (inactive)	> 100 µM (inactive)	> 100 µM (inactive)	> 100 µM (inactive)	> 100 µM (inactive)	34.6 µM (inactive)	> 100 µM (inactive)	> 100 µM (inactive)	> 100 µM (inactive)	> 100 µM (inactive)	> 100 µM (inactive)	> 100 µM (inactive)	> 100 µM (inactive)	> 100 µM (inactive)	> 100 µM (inactive)	> 100 µM (inactive)	> 100 µM (inactive)
Nc1ccc2nc3n(c2c1)C(c1c(F)cccc1F)SC3 (stereo not given)	> 100 µM (inactive)	> 100 µM (inactive)	68.2 µM (inactive)	> 100 µM (inactive)	> 100 µM (inactive)	> 100 µM (inactive)	> 100 µM (inactive)	85.5 µM (inactive)	> 100 µM (inactive)	> 100 µM (inactive)	> 100 µM (inactive)	> 100 µM (inactive)	> 100 µM (inactive)	> 100 µM (inactive)	66.5 µM (inactive)	> 100 µM (inactive)	> 100 µM (inactive)	> 100 µM (inactive)	> 100 µM (inactive)	> 100 µM (inactive)
